The structures appear in SMILES notation. pIC50, pKi: −log10 of the molar value.

Data set [1] is described as follows: Inhibition of PI3K (unknown origin). Also noted: species or system Homo sapiens.
Data set [2] deals with Phosphatidylinositol 4,5-bisphosphate 3-kinase catalytic subunit alpha isoform (Homo sapiens, UniProt P42336). The data set is described as follows: Inhibition of PI3K alpha (unknown origin).
The subject of data set [3] is U2OS. In words: Cytotoxicity against human U2OS cells assessed as reduction in cell viability incubated for 48 hrs by MTT assay. In kind it is functional, cell-based. In general terms: Tetrazolium dyes change colour on reduction, which living cells bring about.
The next data set concerns SW480. The data set is described as follows: Antiproliferative activity against human SW480 cells assessed as reduction in cell viability incubated for 72 hrs by MTT assay. Format: functional, cell-based. To be noted: SW480, 72 h.
Data set [4] can be described thus: Half life in human liver microsomes. In kind it is ADME, Microsome. (In general: Microsomes from liver hold many membrane-bound enzymes, among them those of drug oxidation.)
For another data set, the system named is MCF7. In words: cells. To be noted: Homo sapiens.
Data set [5] has as its target T1, Serine-protein kinase ATM (Homo sapiens, UniProt Q13315). In words: Inhibition of ATM (unknown origin).
The target in data set [6] is Serine/threonine-protein kinase mTOR (Homo sapiens, UniProt P42345). The data set is described as follows: Inhibition of mTOR (unknown origin).
For data set [7], the target named is T1, Serine-protein kinase ATM. In words: Binding affinity to ATM (unknown origin) assessed as inhibition constant.
The target of data set [8] is Phosphatidylinositol 3-kinase catalytic subunit type 3 (Homo sapiens, UniProt Q8NEB9). The data set is described as follows: Binding affinity to Vps34 (unknown origin) assessed as inhibition constant.
Data set [9] has as its system U2OS. In words: cells. To be noted: Homo sapiens.

Phosphatidylinositol 3-kinase catalytic subunit type 3, sequence (Q8NEB9 whole entry): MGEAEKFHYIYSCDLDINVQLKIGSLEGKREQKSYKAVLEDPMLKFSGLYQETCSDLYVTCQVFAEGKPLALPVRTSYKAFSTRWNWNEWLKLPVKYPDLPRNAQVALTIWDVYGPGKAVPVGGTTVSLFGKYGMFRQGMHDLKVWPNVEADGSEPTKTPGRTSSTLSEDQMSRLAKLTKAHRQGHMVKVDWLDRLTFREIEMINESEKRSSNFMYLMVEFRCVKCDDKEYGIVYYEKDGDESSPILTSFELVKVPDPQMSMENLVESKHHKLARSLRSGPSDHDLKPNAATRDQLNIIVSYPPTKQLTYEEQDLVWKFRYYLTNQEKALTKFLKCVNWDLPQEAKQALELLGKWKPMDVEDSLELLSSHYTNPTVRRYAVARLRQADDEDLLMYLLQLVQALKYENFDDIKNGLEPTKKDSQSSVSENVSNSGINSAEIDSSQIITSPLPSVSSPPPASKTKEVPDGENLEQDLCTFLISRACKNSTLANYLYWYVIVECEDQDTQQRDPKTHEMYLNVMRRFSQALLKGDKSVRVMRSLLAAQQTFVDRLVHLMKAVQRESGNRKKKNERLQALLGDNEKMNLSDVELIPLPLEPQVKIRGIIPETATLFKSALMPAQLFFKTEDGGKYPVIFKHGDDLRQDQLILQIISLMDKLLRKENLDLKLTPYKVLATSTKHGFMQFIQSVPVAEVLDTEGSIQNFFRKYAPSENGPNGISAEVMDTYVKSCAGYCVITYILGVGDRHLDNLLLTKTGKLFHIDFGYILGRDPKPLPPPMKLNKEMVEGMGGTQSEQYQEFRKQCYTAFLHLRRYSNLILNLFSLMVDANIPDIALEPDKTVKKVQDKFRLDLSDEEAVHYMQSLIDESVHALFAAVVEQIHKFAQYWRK
T1 sequence (Q13315 whole entry): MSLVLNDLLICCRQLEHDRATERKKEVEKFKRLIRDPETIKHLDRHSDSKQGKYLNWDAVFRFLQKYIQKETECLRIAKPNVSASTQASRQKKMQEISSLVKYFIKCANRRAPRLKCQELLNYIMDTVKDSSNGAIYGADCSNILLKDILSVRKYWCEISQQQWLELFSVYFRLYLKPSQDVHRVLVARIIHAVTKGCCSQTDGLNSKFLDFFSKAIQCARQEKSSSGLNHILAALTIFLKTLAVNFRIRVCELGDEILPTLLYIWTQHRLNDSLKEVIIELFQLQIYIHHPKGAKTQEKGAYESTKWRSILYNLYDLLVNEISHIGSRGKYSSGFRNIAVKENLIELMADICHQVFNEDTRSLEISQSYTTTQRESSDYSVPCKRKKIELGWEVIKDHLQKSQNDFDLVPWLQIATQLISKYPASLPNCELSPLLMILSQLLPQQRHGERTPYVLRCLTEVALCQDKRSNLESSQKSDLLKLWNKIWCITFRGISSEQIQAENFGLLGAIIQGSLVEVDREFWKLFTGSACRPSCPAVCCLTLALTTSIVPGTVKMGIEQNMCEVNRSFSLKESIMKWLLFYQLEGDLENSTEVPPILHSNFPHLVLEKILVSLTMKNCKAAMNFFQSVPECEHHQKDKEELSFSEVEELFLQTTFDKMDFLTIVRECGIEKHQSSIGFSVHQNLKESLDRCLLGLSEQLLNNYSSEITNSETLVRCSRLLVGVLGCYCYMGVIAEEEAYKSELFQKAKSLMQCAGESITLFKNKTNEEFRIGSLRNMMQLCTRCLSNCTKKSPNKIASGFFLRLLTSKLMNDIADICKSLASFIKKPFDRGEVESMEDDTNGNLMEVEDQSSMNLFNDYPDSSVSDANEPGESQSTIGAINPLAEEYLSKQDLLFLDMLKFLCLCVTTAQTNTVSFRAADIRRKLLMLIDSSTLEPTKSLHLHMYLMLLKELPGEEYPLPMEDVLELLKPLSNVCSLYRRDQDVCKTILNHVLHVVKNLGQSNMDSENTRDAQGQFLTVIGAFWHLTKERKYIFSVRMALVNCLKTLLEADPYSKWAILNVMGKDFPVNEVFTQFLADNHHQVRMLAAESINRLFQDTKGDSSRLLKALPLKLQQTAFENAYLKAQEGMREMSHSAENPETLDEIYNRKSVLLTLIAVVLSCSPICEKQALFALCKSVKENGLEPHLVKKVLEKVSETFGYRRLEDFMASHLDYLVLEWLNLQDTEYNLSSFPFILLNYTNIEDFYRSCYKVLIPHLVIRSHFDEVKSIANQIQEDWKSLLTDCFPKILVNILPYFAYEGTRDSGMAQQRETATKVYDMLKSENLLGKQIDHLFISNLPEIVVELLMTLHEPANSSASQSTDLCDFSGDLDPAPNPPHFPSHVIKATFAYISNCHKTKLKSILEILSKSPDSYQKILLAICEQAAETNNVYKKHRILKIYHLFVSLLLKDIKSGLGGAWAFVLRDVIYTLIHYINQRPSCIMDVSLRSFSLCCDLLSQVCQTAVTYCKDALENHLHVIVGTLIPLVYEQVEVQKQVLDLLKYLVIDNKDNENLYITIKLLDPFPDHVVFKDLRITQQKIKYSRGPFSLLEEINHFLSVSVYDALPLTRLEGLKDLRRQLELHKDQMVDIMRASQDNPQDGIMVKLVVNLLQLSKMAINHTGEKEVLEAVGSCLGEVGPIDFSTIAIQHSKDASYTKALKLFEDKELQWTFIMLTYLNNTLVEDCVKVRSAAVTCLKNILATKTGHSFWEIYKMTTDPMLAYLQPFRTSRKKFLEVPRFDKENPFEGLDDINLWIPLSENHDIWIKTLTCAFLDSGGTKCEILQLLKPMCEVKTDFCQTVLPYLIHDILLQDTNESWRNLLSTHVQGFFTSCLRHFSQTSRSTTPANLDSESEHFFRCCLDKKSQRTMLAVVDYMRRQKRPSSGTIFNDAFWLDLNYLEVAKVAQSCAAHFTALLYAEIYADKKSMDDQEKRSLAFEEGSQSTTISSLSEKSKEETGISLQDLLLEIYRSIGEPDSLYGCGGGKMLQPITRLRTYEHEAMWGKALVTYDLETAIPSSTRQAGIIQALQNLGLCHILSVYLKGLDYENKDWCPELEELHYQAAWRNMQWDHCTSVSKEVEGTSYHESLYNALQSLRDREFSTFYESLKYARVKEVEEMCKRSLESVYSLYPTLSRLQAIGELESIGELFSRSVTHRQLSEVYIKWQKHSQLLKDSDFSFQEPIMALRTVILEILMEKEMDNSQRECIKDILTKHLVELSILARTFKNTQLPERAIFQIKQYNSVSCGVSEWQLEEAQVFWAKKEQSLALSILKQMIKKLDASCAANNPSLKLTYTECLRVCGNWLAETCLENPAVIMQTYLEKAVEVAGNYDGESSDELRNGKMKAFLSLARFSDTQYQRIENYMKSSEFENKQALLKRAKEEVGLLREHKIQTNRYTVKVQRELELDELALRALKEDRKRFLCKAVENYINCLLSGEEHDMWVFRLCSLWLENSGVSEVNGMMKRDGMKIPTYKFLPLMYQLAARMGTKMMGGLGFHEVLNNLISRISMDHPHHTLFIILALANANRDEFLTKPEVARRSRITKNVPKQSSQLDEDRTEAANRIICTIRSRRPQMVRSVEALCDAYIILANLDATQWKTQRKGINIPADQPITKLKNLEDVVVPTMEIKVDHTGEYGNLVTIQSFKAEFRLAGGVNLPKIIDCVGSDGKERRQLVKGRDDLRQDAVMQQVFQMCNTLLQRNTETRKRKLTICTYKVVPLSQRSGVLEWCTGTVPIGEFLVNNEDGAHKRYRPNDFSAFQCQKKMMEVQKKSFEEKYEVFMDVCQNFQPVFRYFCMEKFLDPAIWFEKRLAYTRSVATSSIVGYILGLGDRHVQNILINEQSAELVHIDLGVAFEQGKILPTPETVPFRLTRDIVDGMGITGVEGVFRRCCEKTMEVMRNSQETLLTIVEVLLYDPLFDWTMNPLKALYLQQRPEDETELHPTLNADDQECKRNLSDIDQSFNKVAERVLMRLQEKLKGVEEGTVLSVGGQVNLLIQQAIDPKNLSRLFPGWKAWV
Phosphatidylinositol 4,5-bisphosphate 3-kinase catalytic subunit alpha isoform, sequence (P42336 whole entry, canonical isoform): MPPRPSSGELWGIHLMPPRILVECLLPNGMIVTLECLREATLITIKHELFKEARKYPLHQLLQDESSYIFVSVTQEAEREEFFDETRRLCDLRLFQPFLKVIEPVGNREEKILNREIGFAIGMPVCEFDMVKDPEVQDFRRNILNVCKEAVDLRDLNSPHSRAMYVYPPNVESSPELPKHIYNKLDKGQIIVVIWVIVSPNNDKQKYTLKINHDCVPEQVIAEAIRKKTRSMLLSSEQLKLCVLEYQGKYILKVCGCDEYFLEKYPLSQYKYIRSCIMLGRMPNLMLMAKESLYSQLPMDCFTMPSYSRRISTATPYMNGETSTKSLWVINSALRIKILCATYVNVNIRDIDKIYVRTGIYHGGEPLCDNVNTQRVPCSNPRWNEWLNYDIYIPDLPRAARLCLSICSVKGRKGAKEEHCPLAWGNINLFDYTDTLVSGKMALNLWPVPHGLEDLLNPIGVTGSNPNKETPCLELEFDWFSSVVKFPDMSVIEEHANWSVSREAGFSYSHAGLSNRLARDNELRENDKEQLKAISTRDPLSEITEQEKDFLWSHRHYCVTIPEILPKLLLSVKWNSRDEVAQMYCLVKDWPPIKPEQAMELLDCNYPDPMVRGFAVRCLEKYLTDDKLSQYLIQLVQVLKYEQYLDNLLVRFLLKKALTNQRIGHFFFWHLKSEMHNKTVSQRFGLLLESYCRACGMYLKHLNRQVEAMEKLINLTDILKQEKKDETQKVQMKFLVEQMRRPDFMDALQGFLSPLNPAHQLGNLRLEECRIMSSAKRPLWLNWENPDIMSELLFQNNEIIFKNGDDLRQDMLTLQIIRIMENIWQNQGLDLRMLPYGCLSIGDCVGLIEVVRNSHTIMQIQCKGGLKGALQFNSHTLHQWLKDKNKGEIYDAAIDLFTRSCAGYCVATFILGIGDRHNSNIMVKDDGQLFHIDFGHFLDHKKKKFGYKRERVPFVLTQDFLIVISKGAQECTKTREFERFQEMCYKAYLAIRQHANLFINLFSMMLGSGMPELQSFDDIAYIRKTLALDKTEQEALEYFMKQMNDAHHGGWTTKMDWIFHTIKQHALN
Description for MCF7: Antiproliferative activity against human MCF7 cells assessed as reduction in cell growth

One may read the pIC50 as the IC50 on a negative log10 scale, so that one unit is a factor of ten. On to `C[C@@H]1CN(CC(=O)Nc2ccc3c(c2)Cc2cccc(-c4cc(=O)cc(N5CCOCC5)o4)c2S3)C[C@H](C)O1`, for which the pIC50 in [1] is 8.22.
`CN1CCN(CCC(=O)Nc2ccc3c(c2)Sc2cccc(-c4cc(=O)cc(N5CCOCC5)o4)c2S3)CC1` showed a pIC50 in data set [2] of 8.52.
Consider `COc1ccc2c(c1)Cc1cccc(-c3cc(=O)cc(N4CCOCC4)o3)c1S2`, for which the pIC50 is 8.30 in [2] and 6.04 in the data set with U2OS [3].
As for `CNC(=O)c1ccc(-c2cnc3cnc(-c4ccccc4)cn23)cc1`, the pIC50 with SW480 is 5.21.
Broadly, the half-life is the time needed for the level to fall by half in the phase considered. A higher half-life goes with slow decline. Regarding `CC(C)NC(=O)N(C)c1cnc2ccc(-c3ccc(OCCCN4CCCCC4)nc3)cc2n1`, the half-life in data set [4] is 12.8 h.
As for `COCCOc1cc2c(-n3cc(-c4ccccn4)nc3N)ncnc2cc1OC`, in the data set on MCF7, the pIC50 is 5.92.
On the same count and under the same terms, as for `COc1cc2ncnc(-n3cc(-c4ccccn4)nc3N)c2cc1OC`, the figure is 6.43.
Regarding `C=C1C(=O)OCC1C(=O)N1Cc2cc3ccccc3nc2C1` (configuration not stated), the pIC50 is 6.22 in [5] and 5.15 in data set [6].
Broadly, the pKi is the negative decadic logarithm of the Ki, by convention in mol/L. Consider `C[C@H]1CCN(c2nc(N3CCOCC3)cc(=O)[nH]2)[C@@H]1Cc1ccccc1`, for which the pKi was 9.40 in data set [7] and 8.22 in [8]. Further, the pIC50 in the data set on U2OS [9] was 7.05.
For the molecule `O=c1cc(N2CCOCC2)cc(N2C[C@@H]3C[C@@H]3[C@H]2Cc2ccccc2)[nH]1`, the pKi in [7] is 8.70; in data set [8], 7.05. The molecule also showed a pIC50 in the data set with U2OS [9] of 6.52.
The corresponding values for `O=c1cc(N2CCOCC2)cc(N2CCCCC[C@H]2Cc2ccccc2)[nH]1` are 9.00, 7.30 and 6.64.
The like results for `O=c1cc(N2CCOCC2)cc(N2CC3CC3[C@H]2Cc2ccccc2)[nH]1` (some centres not stated) were, in that order, 8.22, 8.05 and 5.47.
